# Results published in patent publication US20210032257A1, “(E)-1-(4-(DIMETHYLAMINO)BUT-2-ENOYL)PYRROLIDIN-3-YL 4-((3-ISOPROPYL-5-METHYLPYRAZOLO[1,5-A]PYRIMIDIN-7-YL)AMINO)PIPERIDINE-1-CARBOXYLATE FOR INHIBITING CDK7” (Eli Lilly and Company, priority 2017, published 2021).
# Experiments:
# CDK16/CycY = molecular target: T1, CDK16/CycY (Homo sapiens, UniProt Q00536); test: ProQinase WT Profiler radiometric protein kinase assay; type: biochemical; details: non standard IC50 from 4 concentrations, kinase 3.2 nM, ATP 0.3 μM
# T1 construct: purchased ProQinase
# Method: (§1) Kinase inhibition profile of compound is determined by measuring residual activity values at four concentrations in singlicate in 320 wild-type protein kinase assays. The compounds are tested at 20 μM, 2 μM, 0.2 μM and 0.02 μM in singlicate. The final DMSO concentration in all reaction cocktails (including high and low controls) is 1%.
# (§2) A radiometric protein kinase assay (33PANQINASE® Activity Assay, ProQinase) is used for measuring the kinase activity of the 320 protein kinases. All kinase assays are performed in 96-well FLASHPLATES™ in a 50 μL reaction volume. The reaction cocktail is pipetted in 4 steps in the following order:
# (§3) All PKC assays (except the PKC-mu and the PKC-nu assay) additionally contain 1 mM CaCl2). 4 mM EDTA, 5 μg/mL Phosphatidylserine and 1 μg/mL 1,2-Dioleyl-glycerol. The CAMK1D, CAMK2A, CAMK2B, CAMK2D, CAMK2G, CAMK4, CAMKK1, CAMKK2, DAPK2, EEF2K, MYLK, MYLK2 and MYLK3 assays additionally contain 1 μg/mL Calmodulin and 0.5 mM CaCl2). The PRKG1 and PRKG2 assays additionally contain 1 μM cGMP. The DNA-PK assay additionally contained 2.5 μg/mL DNA.
# (§4) The protein kinase reaction cocktails are incubated at 30° C. for 60 minutes. The reaction is stopped with 50 μL of 2% (v/v) H3PO4, plates are aspirated and washed two times with 200 μL 0.9% (w/v) NaCl. […] All protein kinase assays are performed with a BeckmanCoulter BIOMEK® 2000/SL robotic system. All protein kinases provided by ProQinase are expressed in Sf9 insect cells or in E. coli as recombinant GST-fusion proteins or His-tagged proteins, either as full-length or enzymatically active fragments. All kinases are produced from human cDNAs and purified by either GSH-affinity chromatography or immobilized metal. Affinity tags are removed from a number of kinases during purification. The purity of the protein kinases is examined by SDS-PAGE/Coomassie staining, the identity is checked by mass spectroscopy. Kinases from external vendors (CAR=Carna Biosciences Inc.; INV=Life Technologies (Invitrogen Corporation™); MIL=Merck-Millipore (Millipore Corporation™), see Table 1) are expressed, purified and quality-controlled by virtue of the vendors readings.
# (§5) For each kinase, the median value of the cpm of three wells is defined as “low control” (n=3). This value reflects unspecific binding of radioactivity to the plate in the absence of a protein kinase but in the presence of the substrate. […] The difference between high and low control of each enzyme is taken as 100% activity. As part of the data evaluation, the low control of each kinase is subtracted from the high control value as well as from their corresponding “compound values”. The residual activity (in %) for each compound well is calculated by using the following formula: Res. Activity (%)=100×[(signal of compound−low control)/(high control−low control)]. Non Standard IC50s are calculated using a customized excel spreadsheet in conjunction with XLFit Add-in. Due to the low number of data points, (4) XL-Fit calculates a non standard IC50 using a four parametric equation where three parameters are locked to fixed values.
# (§6) A: Minimum value of activity, Also known as Bottom. Fixed to 0 B: Maximum value of activity, Also known as Top. Fixed to 100 C: Inflexion point of the curve D: Hill Slope. Fixed to 1 Y: The dependent variable (i.e. what you measure as the signal) X: The independent variable (i.e. what you control, such as, dose, concentration, etc.)
# (§7) The way to calculate the Non Standard IC50 is to assign random values to C parameter and repeat it iteratively. The algorithm then measures the differences in the sum of the residuals squared and will look for successive consecutive iterations where the change in the residuals is converging.
# CDK4/CycD1 = molecular target: T2, CDK4/CycD1 (Homo sapiens, UniProt P11802); test: as above; type: biochemical; details: non standard IC50 from 4 concentrations, kinase 3.3 nM, ATP 3 μM
# T2 construct: purchased ProQinase
# Method: as §1, §2, §3, §4, §5, §6, §7
# CDK6/CycD1 = molecular target: T3, CDK6/CycD1 (Homo sapiens, UniProt Q00534); test: as above; type: biochemical; details: non standard IC50 from 4 concentrations, kinase 3.2 nM, ATP 3 μM
# T3 construct: purchased ProQinase
# Method: as §1, §2, §3, §4, §5, §6, §7
# H441 xenograft = test: Xenograft Tumor Model; type: in vivo, mice; details: H441, Lung; 20 mg/kg PO QDx35
# Method: (§8) To evaluate in vivo efficacy of a test compound, multiple xenograft tumor models are utilized. Briefly, 5-10×10^6 tumor cells in a 1:1 MATRIGEL® mix (0.2 mL total volume) are injected subcutaneously into the female athymic nude mice (Envigo, Harlan laboratories) for a majority of xenograft tumor models. Alternate mice strains are utilized to establish MDAMB468 (NOD SCID Gamma, Jackson labs), CT26 and EMT6 (BALB/c, Envigo, Harlan Laboratories) xenografts. After allowing tumors to reach a desired size of ˜300-500 mm^3, animals are randomized into groups of 6-8 for efficacy studies. Test compound is administered via oral gavage (PO) at indicated doses and regimens. Tumor growth and body weight are monitored over time to evaluate efficacy and signs of toxicity.
# (§9) Test compound is formulated in 5% N-methyl-2-pyrrolidone (NMP) in 1% hydroxyethylcellulose, 0.25% polysorbate 80, 0.05% antifoam in purified water (HEC) and administered by oral gavage (final volume 0.2 mL) at the doses indicated in Table 4. A test compound is formulated on a weekly basis and stored at 4° C. Vehicles are administered to the control groups according the schedules used above using a volume of 0.2 mL per dose. Mice are dosed via oral gavage and tumor samples are collected at termination and stored at −80° C.
# (§10) Tumor size and body weight are recorded and analyzed bi-weekly. Blood is collected using DBS (dried blood spot) card 2 hours after dose and at termination. Tumors are collected at study termination, cut into 3 sections and either snap frozen for exposure and protein analysis, or placed in RNAlater® for RNA analysis. Tissue samples are frozen and stored at −80° C.
# (§11) Delta T/C % is calculated when the endpoint tumor volume in a treated group is at or above baseline tumor volume. The formula is 100*(T−T0)/(C−C0). Here, T and C are mean endpoint tumor volumes in the treated or control group, respectively. TO and CO are mean baseline tumor volumes in those groups. *: Significant (p<0.05)
# MDAMB468 xenograft = test: Xenograft Tumor Model; type: in vivo, mice; details: MDAMB468, Breast, ARID1A, RB1; NOD SCID Gamma; 20 mg/kg PO QDx28
# Method: as §8, §9, §10, §11
# CDK7/CyclinH/Mat1 = CDK7/CyclinH/Mat1 (Homo sapiens, UniProt P50613); test: Biochemical assay for inhibition of CDK7/CyclinH/MAT1 (radiolabel filter binding)
# Sequence of CDK7/CyclinH/Mat1 (P50613 whole entry): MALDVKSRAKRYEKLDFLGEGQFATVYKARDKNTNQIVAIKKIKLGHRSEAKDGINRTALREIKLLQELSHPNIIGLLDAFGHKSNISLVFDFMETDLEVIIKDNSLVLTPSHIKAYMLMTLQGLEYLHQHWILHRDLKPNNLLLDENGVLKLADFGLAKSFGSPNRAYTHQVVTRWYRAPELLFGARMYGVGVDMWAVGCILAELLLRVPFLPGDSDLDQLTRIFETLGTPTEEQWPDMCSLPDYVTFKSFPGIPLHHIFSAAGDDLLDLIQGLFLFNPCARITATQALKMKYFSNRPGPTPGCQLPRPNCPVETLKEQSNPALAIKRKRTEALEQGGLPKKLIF
# Sequence of CDK7/CyclinH/Mat1 (P51946 whole entry partner): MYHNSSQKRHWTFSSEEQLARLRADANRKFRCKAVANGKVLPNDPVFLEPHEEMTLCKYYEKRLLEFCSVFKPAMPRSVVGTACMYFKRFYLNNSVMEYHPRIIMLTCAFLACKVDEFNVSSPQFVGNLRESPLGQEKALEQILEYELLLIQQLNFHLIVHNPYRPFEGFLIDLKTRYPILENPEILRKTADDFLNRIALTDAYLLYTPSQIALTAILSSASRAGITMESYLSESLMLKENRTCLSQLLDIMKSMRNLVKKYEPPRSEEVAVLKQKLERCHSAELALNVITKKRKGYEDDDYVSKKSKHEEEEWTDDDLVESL
# Sequence of CDK7/CyclinH/Mat1 (P51948 whole entry partner): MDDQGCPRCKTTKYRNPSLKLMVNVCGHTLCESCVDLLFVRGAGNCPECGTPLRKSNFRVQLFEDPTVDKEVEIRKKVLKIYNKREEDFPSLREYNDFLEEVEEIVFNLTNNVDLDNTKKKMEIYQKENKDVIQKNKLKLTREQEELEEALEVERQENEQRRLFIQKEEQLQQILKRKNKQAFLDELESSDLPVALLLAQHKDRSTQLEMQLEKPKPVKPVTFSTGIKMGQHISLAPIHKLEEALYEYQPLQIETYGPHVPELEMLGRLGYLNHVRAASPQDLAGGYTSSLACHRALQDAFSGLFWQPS
# Method: The purpose of this assay is to measure the ability of a compound of the invention to inhibit CDK7/CyclinH/Mat1 complex kinase activity.
# The IC50 activity of the inhibitor is determined using radiolabel filter binding (FB) assays using the purified human recombinant enzyme in the presence of ATP//[3^3P]ATP and peptide substrate. The ATP concentrations chosen are at or near the enzyme Km for ATP.
# Reactions are carried out in 96 well polystyrene plates in a final volume of 25 μL per well. 5 μL of test compound in 20% DMSO, 10 μL of substrate solution (ATP/33PATP and CDK7/9 tide) and 10 μL of enzyme solution are mixed. […] The enzyme solution is prepared for a final concentration of 1 nM CDK7/CyclinH/Mat1 enzyme [Proqinase 0366-0360-4 Lot 002)] diluted in kinase buffer. Test compounds are serially diluted 1:3 in 20% DMSO to create a 10 point curve at a starting concentration of 20 μM. 20% DMSO buffer alone without test compound is employed as high control (full activity in the absence of any inhibitor), 500 mM EDTA is used to determine the level of background in the absence of enzyme activity (low control). After mixing 5 μL of compounds with 10 μL of enzyme solution the plate is incubated for 0 or 180 minutes at 22° C. After that time the reaction is initiated by the addition of 10 μL substrate solution and incubated for 50 minutes at 22° C. The reaction is terminated by the addition of 80 μL of cold 10% ortophosphoric solution. The Filter Plates (opaque, non-sterile filter plates) are prewashed with 10 μL of 10% orthophosphoric solution to each well. 100 μL of the mixture are transferred to a phosphocellulose filter and incubated at room temperature for 45 minutes. Filter plates are washed with 200 μL 0.5% orthophosphoric acid 3 times on a filter plate processor. Incorporation of 33Pi (counting of “cpm”) is determined by adding 80 μL of MICROSCINT™ to each well and read on a counter after an hour. Data is processed through a [sequence] […] ® tool. Data are analyzed using a 4-parameter nonlinear logistic equation (four-parameter logistic concentration-response curve): Y=bot+[(top-bot)/1+(x/IC50)slope] where Y=% inhibition, X=concentration yielding y % inhibition, Bottom=minimum value of y attained by curve, Top=maximum value of y attained by curve and Slope=steepness of curve at IC50. % Inh=[(median Max−x/median Max−median Min)]·100
# IC50: concentration of compound that reduces a given response (ligand binding, enzyme response) by 50%.
# T1 sequence (Q00536 whole entry): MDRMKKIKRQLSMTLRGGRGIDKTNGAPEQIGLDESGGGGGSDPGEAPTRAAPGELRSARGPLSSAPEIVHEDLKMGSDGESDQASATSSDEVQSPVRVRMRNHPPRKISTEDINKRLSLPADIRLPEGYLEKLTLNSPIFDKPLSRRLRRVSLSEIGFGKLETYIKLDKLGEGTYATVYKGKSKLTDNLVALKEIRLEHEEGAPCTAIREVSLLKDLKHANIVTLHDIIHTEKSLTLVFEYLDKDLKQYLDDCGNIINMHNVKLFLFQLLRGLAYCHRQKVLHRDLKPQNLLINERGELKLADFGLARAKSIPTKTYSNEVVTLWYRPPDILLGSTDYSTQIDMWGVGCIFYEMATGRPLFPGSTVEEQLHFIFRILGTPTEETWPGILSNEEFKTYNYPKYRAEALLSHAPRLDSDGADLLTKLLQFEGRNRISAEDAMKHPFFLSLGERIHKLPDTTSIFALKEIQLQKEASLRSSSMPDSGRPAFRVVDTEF
# T1 sequence (Q8ND76 whole entry partner): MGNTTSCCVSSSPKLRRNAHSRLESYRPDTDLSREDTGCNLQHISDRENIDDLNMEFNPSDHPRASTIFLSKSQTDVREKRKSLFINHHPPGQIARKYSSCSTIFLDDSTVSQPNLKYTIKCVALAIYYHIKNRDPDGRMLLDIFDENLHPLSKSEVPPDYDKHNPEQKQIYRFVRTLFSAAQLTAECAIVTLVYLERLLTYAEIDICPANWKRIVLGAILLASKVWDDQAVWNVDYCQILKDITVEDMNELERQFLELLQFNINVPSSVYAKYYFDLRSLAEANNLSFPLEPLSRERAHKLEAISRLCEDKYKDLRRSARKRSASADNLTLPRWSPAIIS
# T2 sequence (P11802 whole entry): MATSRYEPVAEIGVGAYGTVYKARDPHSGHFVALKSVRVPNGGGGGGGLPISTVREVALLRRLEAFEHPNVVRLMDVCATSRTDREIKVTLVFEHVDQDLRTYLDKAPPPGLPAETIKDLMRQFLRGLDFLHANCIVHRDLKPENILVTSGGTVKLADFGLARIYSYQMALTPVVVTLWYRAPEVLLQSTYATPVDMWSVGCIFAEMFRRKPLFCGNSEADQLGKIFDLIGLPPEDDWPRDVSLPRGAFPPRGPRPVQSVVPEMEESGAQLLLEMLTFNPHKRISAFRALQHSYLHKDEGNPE
# T2 sequence (P24385 whole entry partner): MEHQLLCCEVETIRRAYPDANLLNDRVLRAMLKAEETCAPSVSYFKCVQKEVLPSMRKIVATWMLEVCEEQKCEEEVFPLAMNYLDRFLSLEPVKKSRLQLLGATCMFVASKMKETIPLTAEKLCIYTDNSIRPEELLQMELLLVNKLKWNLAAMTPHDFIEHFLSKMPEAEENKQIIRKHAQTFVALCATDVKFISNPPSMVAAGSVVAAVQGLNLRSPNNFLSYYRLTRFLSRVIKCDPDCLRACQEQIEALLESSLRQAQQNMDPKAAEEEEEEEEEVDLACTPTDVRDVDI
# T3 sequence (Q00534 whole entry): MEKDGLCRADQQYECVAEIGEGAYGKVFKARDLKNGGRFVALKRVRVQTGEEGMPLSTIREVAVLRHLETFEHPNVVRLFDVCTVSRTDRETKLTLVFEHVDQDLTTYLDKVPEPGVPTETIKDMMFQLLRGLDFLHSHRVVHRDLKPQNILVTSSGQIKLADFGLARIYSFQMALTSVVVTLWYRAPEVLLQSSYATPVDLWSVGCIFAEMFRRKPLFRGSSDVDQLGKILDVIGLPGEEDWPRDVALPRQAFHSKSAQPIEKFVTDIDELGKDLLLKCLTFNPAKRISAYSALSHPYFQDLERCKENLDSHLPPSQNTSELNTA
# T3 sequence (P24385 whole entry partner): as the sequence (P24385 whole entry partner) above
compound,measurement,setting,value
"Cc1cc(NC2CCN(C(=O)O[C@H]3CCN(C(=O)/C=C/CN(C)C)C3)CC2)n2ncc(C(C)C)c2n1 [Example 1, [(3S)-1-[(E)-4-(dimethylamino)but-2-enoyl]pyrrolidin-3-yl] 4-[(3-isopropyl-5-methyl-pyrazolo[1,5-a]pyrimidin-7-yl)amino]piperidine-1-carboxylate]",IC50,CDK16/CycY,9070 nM
same,IC50,CDK4/CycD1,2830 nM
same,IC50,CDK6/CycD1,8080 nM
same,Avg. ΔT/C,H441 xenograft,0%
same,Avg. ΔT/C,MDAMB468 xenograft,−91%
same,IC50,"CDK7/CyclinH/Mat1; IC50 in CDK7, 3 hours of preincubation of CDK7 enzyme",2.37 nM
same,IC50,"CDK7/CyclinH/Mat1; IC50 in CDK7, without preincubation",17.3 nM
